Experimental data from US9051310B2, “Nicotinamide derivative or salt thereof” (FUJIFILM Corporation, priority 2011, dated 2015).
pIC50: −log10 of the molar value.

Legend:
[1] = system: THP-1 cells (TNFα secretion on human IgG-coated plate); test: TNFα generation assay; format: cell-based; conditions: IFN-γ differentiated THP-1 cells, 7 hours, AlphaLISA, read-out: IC50 of TNFα generation inhibitory activity
Method: THP-1 cells (2×10^5 cells/ml), which were human monocytoid cells, were cultured in the presence of 10 ng/ml IFN-γ (Roche) for 2 days, and they were induced to differentiate into macrophage-like cells. The differentiation-induced THP-1 cells were recovered, and the cells (1×10^6 cell/ml) were then allowed to react with a predetermined concentration of test compound at room temperature for 30 minutes. On the other hand, 100 μl of human IgG (10 μg/ml, SIGMA-ALDRICH) diluted with PBS was added to a 96-well plate, and it was then incubated at room temperature overnight. Thereafter, the resultant was washed with PBS twice to produce a human IgG-coated plate. A cell fluid that contained a compound was plated on the obtained human IgG-coated plate (5×10^4 cells/well), and it was then cultured for 7 hours. Thereafter, the cultured solution was recovered, and the amount of TNFα secreted into the culture solution was then measured by the AlphaLISA method (PerkinElmer).

[2] = target: T1, glutathione S-transferase (GST)-linked full-length human Syk protein (Homo sapiens, UniProt P43405); test: Syk enzyme assay; format: biochemical; conditions: 0.83 nM Syk, time-resolved fluorescence; read-out: IC50 of Syk-inhibitory activity
T1 construct: glutathione S-transferase (GST)-linked full-length human Syk protein; purchased Carna Biosciences; host or cells: Baculovirus expression system
Method in brief: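 Phosphotyrosine on a biotin-peptide substrate (0.5 μM) was read by time-resolved fluorescence at 615 and 665 nm with Eu-anti-pTyr antibody and APC-streptavidin after 1 h EDTA stop.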

| pIC50 [1] | pIC50 [2] | SMILES |
| --- | --- | --- |
| 6.89 to 7.19 | > 8.00 | COc1cc(Nc2nc(N[C@H](C3CCC3)[C@H](C)N)c(F)cc2C(N)=O)ccn1 [Example 2-5, 6-(((1R,2S)-2-amino-1-cyclobutylpropyl)amino)-5-fluoro-2-((2-methoxypyridin-4-yl)amino)nicotinamide] |
| 6.70 to 6.89 | > 8.00 | COc1cc(Nc2nc(N[C@H](C3CCC3)[C@H](C)N)c(F)cc2C(N)=O)cc(OC)n1 [Example 2-6, 6-(((1R,2S)-2-amino-1-cyclobutylpropyl)amino)-2-((2,6-dimethoxypyridin-4-yl)amino)-5-fluoronicotinamide] |
| 6.89 to 7.19 | > 8.00 | COCCOc1cc(Nc2nc(N[C@H](C3CCC3)[C@H](C)N)c(F)cc2C(N)=O)ccn1 [Example 2-7, 6-(((1R,2S)-2-amino-1-cyclobutylpropyl)amino)-5-fluoro-2-((2-(2-methoxyethoxy)pyridin-4-yl)amino)nicotinamide] |
| > 7.19 | > 8.00 | C[C@H](N)[C@H](Nc1nc(Nc2ccc3ncccc3c2)c(C(N)=O)cc1F)C1CCC1 [Example 2-8, 6-(((1R,2S)-2-amino-1-cyclobutylpropyl)amino)-5-fluoro-2-(quinolin-6-ylamino)nicotinamide] |
| 6.89 to 7.19 | > 8.00 | CCn1ncc2cc(Nc3nc(N[C@H](C4CCC4)[C@H](C)N)c(F)cc3C(N)=O)ccc21 [Example 2-9] |
| > 7.19 | > 8.00 | C[C@H](N)[C@H](Nc1nc(Nc2ccc3cnn(C)c3c2)c(C(N)=O)cc1F)C1CCC1 [Example 2-10, 6-(((1R,2S)-2-amino-1-cyclobutylpropyl)amino)-5-fluoro-2-((1-methyl-1H-indazol-6-yl)amino)nicotinamide] |
| 6.70 to 6.89 | > 8.00 | CCn1ncc2ccc(Nc3nc(N[C@H](CC(C)C)[C@H](C)N)c(F)cc3C(N)=O)cc21 [Example 2-11, 6-(((2S,3R)-2-amino-5-methylhexan-3-yl)amino)-2-((1-ethyl-1H-indazol-6-yl)amino)-5-fluoronicotinamide] |
| 6.70 to 6.89 | > 8.00 | CCCC[C@@H](Nc1nc(Nc2cnc(C)c(C)c2)c(C(N)=O)cc1F)[C@H](C)N [Example 2-19, 6-(((2S,3R)-2-aminoheptan-3-yl)amino)-2-((5,6-dimethylpyridin-3-yl)amino)-5-fluoronicotinamide] |
| 6.89 to 7.19 | > 8.00 | NC(=O)c1cc(F)c(N[C@@H]2CCCC[C@@H]2N)nc1Nc1cccc2c1cnn2CC(F)F [Example 2-20, 6-(((1R,2S)-2-aminocyclohexyl)amino)-2-((1-(2,2-difluoroethyl)-1H-indazol-4-yl)amino)-5-fluoronicotinamide] |
| 6.70 to 6.89 | > 8.00 | C[C@H](N)[C@H](Nc1nc(Nc2cncc(-n3cccn3)c2)c(C(N)=O)cc1F)C1CCC1 [Example 2-24, 2-((5-(1H-pyrazol-1-yl)pyridin-3-yl)amino)-6-(((1R,2S)-2-amino-1-cyclobutylpropyl)amino)-5-fluoronicotinamide] |
| 6.70 to 6.89 | > 8.00 | Cc1cccc(Nc2nc(N[C@H](C3CCC3)[C@H](C)N)c(F)cc2C(N)=O)c1 [Example 2-25, 6-(((1R,2S)-2-amino-1-cyclobutylpropyl)amino)-5-fluoro-2-(m-tolylamino)nicotinamide] |
| 6.70 to 6.89 | > 8.00 | Cc1cc(C)cc(Nc2nc(N[C@H](C3CCC3)[C@H](C)N)c(F)cc2C(N)=O)c1 [Example 2-26, 6-(((1R,2S)-2-amino-1-cyclobutylpropyl)amino)-2-((3,5-dimethylphenyl)amino)-5-fluoronicotinamide] |
| 6.89 to 7.19 | > 8.00 | COc1cccc(Nc2nc(N[C@H](C3CCC3)[C@H](C)N)c(F)cc2C(N)=O)c1 [Example 2-27, 6-(((1R,2S)-2-amino-1-cyclobutylpropyl)amino)-5-fluoro-2-((3-methoxyphenyl)amino)nicotinamide] |
| 6.89 to 7.19 | > 8.00 | COc1ccc(Nc2nc(N[C@H](C3CCC3)[C@H](C)N)c(F)cc2C(N)=O)cc1OC [Example 2-29] |
